The record followed here is ChEMBL document CHEMBL2146459, “Potentiation of ribonuclease cytotoxicity by a poly(amidoamine) dendrimer” (Bioorg Med Chem Lett, 2011).

The source made the active and inactive calls. The rule behind the calls is not given here.

Experiment [1] has as its target T1, Ribonuclease pancreatic (Bos taurus) (UniProt P61823).
T1 sequence (whole entry): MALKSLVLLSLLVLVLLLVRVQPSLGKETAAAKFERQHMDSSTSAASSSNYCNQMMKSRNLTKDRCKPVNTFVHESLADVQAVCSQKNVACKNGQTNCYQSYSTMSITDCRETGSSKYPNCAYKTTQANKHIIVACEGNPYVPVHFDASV
The experiment in a line: Effect on bovine RNase A ribonucleolytic activity assessed as kcat/KM ratio of 6-FAM-dArUdAdA-6-TAMRA at 1 uM by fluorescence assay.

For experiment [2], the target named is T1, Ribonuclease pancreatic (Bos taurus). Briefly: Binding affinity to bovine RNase A in PBS buffer assessed as melting temperature at 1 uM after 3 hrs by UV spectroscopy (reference value: 62.7 +/- 0.1 degC).
The target in experiment [3] is T2, Ribonuclease pancreatic (Bos taurus, UniProt P61823).
T2 sequence (P61823 whole entry): T1 sequence (whole entry)
Briefly: Inhibition of bovine RNase A interaction to ribonuclease inhibitor protein after 30 mins by competition assay.

Experiment [4] deals with T1, Ribonuclease pancreatic (Bos taurus). The experiment in a line: Effect on bovine RNase A ribonucleolytic activity assessed as kcat/KM ratio of 6-FAM-dArUdAdA-6-TAMRA at 10 uM by fluorescence assay.
In experiment [5] the test system is K562. The experiment in a line: Potentiation of bovine RNase-A G88R mutant-induced cytotoxicity against human K562 cells assessed as incorporation of [methyl-3H]-thymidine into cellular DNA at 10 uM after 4 hrs by liquid scintillation counting. The format is functional.
Experiment [6] concerns K562. The experiment in a line: Potentiation of bovine RNase-A DRNG mutant-induced cytotoxicity against human K562 cells assessed as incorporation of [methyl-3H]-thymidine into cellular DNA at 10 uM after 4 hrs by liquid scintillation counting. The format is functional.
For experiment [7], the target named is T1, Ribonuclease pancreatic (Bos taurus). Briefly: Induction of bovine RNaseA internalization in human K562 cells assessed as internalization count at 1 uM after 3 hrs by flow cytometry. The format is cell-based.
The target is the same in experiment [8]. The experiment in a line: Induction of bovine RNaseA internalization in human K562 cells assessed as internalization count at 10 uM after 3 hrs by flow cytometry. The experiment is classed as cell-based. In general terms: A flow cytometer gives signals particle by particle.
For experiment [9] the target is unchanged. Briefly: Binding affinity to bovine RNase A in PBS assessed as melting temperature at 10 uM after 3 hrs by UV spectroscopy (reference value: 62.7 +/- 0.1 degC).
The test system of experiment [10] is K562. Briefly: Potentiation of bovine wild type RNase-A-induced cytotoxicity against human K562 cells assessed as incorporation of [methyl-3H]-thymidine into cellular DNA at 1 to 10 uM after 4 hrs by liquid scintillation counting. The experiment is classed as functional, cell-based.

A word on the Kd: it is the concentration at which binding is half-saturated. Higher therefore signals lower affinity. As to `NCCNC(=O)CCN(CCNC(=O)CCN(CCNC(=O)CCN(CCC(=O)NCCN(CCC(=O)NCCN(CCC(=O)NCCN)CCC(=O)NCCN)CCC(=O)NCCN(CCC(=O)NCCN)CCC(=O)NCCN)CCN(CCC(=O)NCCN(CCC(=O)NCCN(CCC(=O)NCCN)CCC(=O)NCCN)CCC(=O)NCCN(CCC(=O)NCCN)CCC(=O)NCCN)CCC(=O)NCCN(CCC(=O)NCCN(CCC(=O)NCCN)CCC(=O)NCCN)CCC(=O)NCCN(CCC(=O)NCCN)CCC(=O)NCCN)CCC(=O)NCCN(CCC(=O)NCCN)CCC(=O)NCCN)CCC(=O)NCCN` [POLY(AMIDOAMINE)DENDRIMER], the outcome in [1], in [4], in [7], in [8] and in [10] was inactive. Also, the results for the Tm in experiment [2] and in [9] were 62.8 °C and 63.2 °C, respectively. In experiment [3], this compound came in with a Kd of 3.1 µM. The “fold change (FC)” value in [5] and in [6] was 5 in each case.
